Marks after values point to notes of the source that are not given here.
How the values were obtained:
Raji cells = test: Cytotoxicity study, MTS cell proliferation assay, 5 days; assay type: cell-based, human; conditions: Homo sapiens, Raji
Description: (§1) The human Burkitt lymphoma cell line Raji was obtained from the American Type Tissue Culture Collection and cultured in RPMI 1640 medium (ATCC) supplemented with 10% fetal bovine serum (ATCC,) at 37° C., 5% CO2. The COMPOUND I-resistant Raji (Raji/COMPOUND IR) cell line was generated by exposure to progressively higher concentrations of COMPOUND I over a period of 6 months. CAOV3 cells were obtained from ATCC and cultured in complete DMEM supplemented with 10% fetal bovine serum. MCF7 vector controlled and BRCA1 shRNA subclones were obtained from Dr. Simon Powell (Memorial Sloan-Kettering Cancer Center) and cultured in EMBM with 10% fetal bovine serum. MCF10A and hTERT-IMEC clones were obtained from Dr. Ben Ho Park (Johns Hopkins University). HCT116 BRCA2^+/+ cells and BRCA2^−/− cells were obtained from Dr. Samuel Aparicio (British Columbia Cancer Research Centre). PEO1 and PEO4 cells were obtained from Dr. Sharon Cantor (University of Massachusetts) and these cell lines were cultured under the same conditions as previously published. Sakai et al., Functional restoration of BRCA2 protein by secondary BRCA2 mutations in BRCA2-mutated ovarian carcinoma, Cancer Res. 2009; 69 (16):6381-6; Konishi et al., Mutation of a single allele of the cancer susceptibility gene BRCA1 leads to genomic instability in human breast epithelial cells, Proc. Natl. Acad. Sci. 2011; 108 (43):17773-8; Xu et al., CX-5461 is a DNA G-quadruplex stabilizer with selective lethality in BRCA1/2 deficient tumours, Nature Communications 2017; 8:14432, all of which are hereby incorporated by reference.
(§2) Cells were plated and treated with the indicated drugs in 96-well plates for 5 days. Cell viability was measured using CellTiter 96 AQueous one solution (MTS) cell proliferation assay purchased from Promega, and IC50 values were calculated using GraphPad Prism 6 Software.

Raji/COMPOUND IR cells = test: as above; assay type: cell-based, human; conditions: for RR (relative resistance): Raji/COMPOUND IR vs Raji; for IC50: Homo sapiens, Raji
Description: as §1, §2

EOL-1 = test: Cytotoxicity study (MTS), 5 days; assay type: cell-based; conditions: Homo sapiens, EOL1; AML
Description: (§3) EOL-1, GRANTA-519, Jeko-1, Jurkat, Molm-13, NOMO-1, SKM-1, and SU-DHL-6 were obtained from Leibniz-Institut DSMZ. HL-60, KG-1, Mino, MV4-11, Raji, and THP-1 were obtained from ATCC. HEL92.1.7 were obtained from the European Collection of Authenticated Cell Cultures and Ramos cells were a gift from Dr. M. Andreeff (MD Anderson Cancer Center, Houston, Tex.). All cells were cultured in complete media as per the manufacturer's instructions. Early passage cells were collected and frozen within 1 month of receipt from the manufacturer. All experiments were performed on early passage cells within 6 weeks of thawing. MycoScope Mycoplasma Detection Kit (Genlantis catalog #MY01050) was used to screen for potential contamination every 6 months. Peripheral blood mononuclear cells (PBMC) were isolated from fresh healthy donor blood using Ficoll-Paque PLUS (GE Healthcare, catalog #17-1440-02). For synthesis of COMPOUND I free base, 10-phenanthroline-5,6-dione (1.2 equivalents), acetic acid (22 volumes), 2-methyl-5-fluoroindole-3-carboxaldehyde (1.0 equivalents), and ammonium acetate (15 equivalents) were reacted under medium agitation while heated at 95±5° C. for 3 to 7 hours. The reaction was cooled to between 20° C. and 25° C., filtered, rinsed with acetic acid and ethanol, and dried with N2 purge, followed by a wash with 2:1 ethanol:water at 65° C. for 4 hours, cooling to 20° C. to 25° C., filtration, rinsing with 2:1 ethanol:water and EtOAc, and then dried with N2 purge. The purity by HPLC was 99.5%, and the structural identity was confirmed by FT-IR, ^1HNMR, ^13C NMR, and LC/MS. For Fe(COMPOUND I)3 synthesis, five molar equivalents of ferrous ion FeSO4 in water was added to COMPOUND I dissolved in ethanol. The deep red precipitate produced, Fe(COMPOUND I)3, was collected and dissolved in DMSO and characterized by HPLC and mass spectrometry as >95% pure. CX-5461 (7) was purchased from MedChem Express (catalog #HY-13323).
(§4) Cells were plated and treated with vehicle DMSO or COMPOUND I (10 concentrations) in 96-well plates for 5 days at 37° C. and 5% CO2. Cell viability was measured using CellTiter 96 AQueous one solution (MTS) cell proliferation assay (Promega, catalog #G3581), and IC50 values were calculated using GraphPad Prism 7 software.

GRANTA-519 = test: Cytotoxicity study (MTS), 5 days; assay type: cell-based; conditions: Homo sapiens, MCL
Description: as §3, §4

HEL92.1.7 = test: Cytotoxicity study (MTS), 5 days; assay type: cell-based; conditions: Homo sapiens, HEL 92.1.7; AML
Description: as §3, §4

HL-60 = test: Cytotoxicity study (MTS), 5 days; assay type: cell-based; conditions: Homo sapiens, AML
Description: as §3, §4

Jeko-1 = test: Cytotoxicity study (MTS), 5 days; assay type: cell-based; conditions: Homo sapiens, MCL
Description: as §3, §4

Jurkat = test: Cytotoxicity study (MTS), 5 days; assay type: cell-based; conditions: Homo sapiens, T-ALL
Description: as §3, §4

KG-1 = test: Cytotoxicity study (MTS), 5 days; assay type: cell-based; conditions: Homo sapiens, AML
Description: as §3, §4

MOLM-13 = test: Cytotoxicity study (MTS), 5 days; assay type: cell-based; conditions: Homo sapiens, AML
Description: as §3, §4

Nomo-1 = test: Cytotoxicity study (MTS), 5 days; assay type: cell-based; conditions: Homo sapiens, AML
Description: as §3, §4

Raji = test: Cytotoxicity study (MTS), 5 days; assay type: cell-based; conditions: Homo sapiens, Burkitt's
Description: as §3, §4

Ramos = test: Cytotoxicity study (MTS), 5 days; assay type: cell-based; conditions: Homo sapiens, Burkitt's
Description: as §3, §4

SKM-1 = test: Cytotoxicity study (MTS), 5 days; assay type: cell-based; conditions: Homo sapiens, AML
Description: as §3, §4

SUDHL-6 = test: Cytotoxicity study (MTS), 5 days; assay type: cell-based; conditions: Homo sapiens, SU-DHL-6; DLBCL
Description: as §3, §4

THP1 = test: Cytotoxicity study (MTS), 5 days; assay type: cell-based; conditions: Homo sapiens, THP-1; AML
Description: as §3, §4

[1] = animals; cited from earlier work

## Cc1[nH]c2ccc(F)cc2c1-c1nc2c3cccnc3c3ncccc3c2[nH]1 [COMPOUND I, 2-(5-fluoro-2-methyl-1H-indol-3-yl)-1H-imidazo[4,5-f][1,10]phenanthroline]
Raji cells; 120 h, parental Raji cells, growth rate during 120 h exposure
  IC50: 91.9 ± 22.3 nM
Raji cells; COMPOUND I + 5 nM Ko143
  IC50: 98.3 ± 0.8 nM
Raji cells; COMPOUND I + 50 nM Ko143
  IC50: 103 ± 2.9 nM
Raji cells; COMPOUND I alone, mean ± SEM
  IC50: 105 nM
Raji/COMPOUND IR cells
  fold resistant to COMPOUND I (Raji/COMPOUND IR over sensitive Raji): 16.7±3.9 fold
Raji/COMPOUND IR cells; COMPOUND I + 5 nM Ko143
  RR (relative resistance): 10.9 ± 1.9^c
Raji/COMPOUND IR cells; COMPOUND I + 50 nM Ko143
  RR (relative resistance): 2.5 ± 0.7^a
Raji/COMPOUND IR cells; COMPOUND I alone
  RR (relative resistance): 16.7 ± 3.9^b
Raji/COMPOUND IR cells; COMPOUND I + 5 nM Ko143, Raji/COMPOUND IR
  IC50: 853 ± 44 nM
Raji/COMPOUND IR cells; COMPOUND I + 50 nM Ko143, Raji/COMPOUND IR
  IC50: 201 ± 20.7 nM
Raji/COMPOUND IR cells; COMPOUND I alone, Raji/COMPOUND IR, mean ± SEM
  IC50: 1390 ± 94 nM
Raji/COMPOUND IR cells; Raji/COMPOUND IR cells
  IC50: 1390 ± 98.5 nM
EOL-1
  IC50: 0.3 µM
GRANTA-519
  IC50: 0.082 µM
HEL92.1.7
  IC50: 1.75 µM
HL-60
  IC50: 0.46 µM
Jeko-1
  IC50: 0.057 µM
Jurkat
  IC50: 0.52 µM
KG-1
  IC50: 0.51 µM
MOLM-13
  IC50: 0.14 µM
Nomo-1
  IC50: 1.45 µM
Raji
  IC50: 0.1 µM
Ramos
  IC50: 0.35 µM
SKM-1
  IC50: 0.48 µM
SUDHL-6
  IC50: 0.51 µM
THP1
  IC50: 0.34 µM
[1]
  myelosuppression: did not produce myelosuppression

Reference: patent US11149047B2, “Aryl imidazoles for treatment of cancer” (Aptose Biosciences Inc., priority 2017, dated 2021)
